Format in all cases: cell-based, human
Test [1] has as its system Mfn2. The test is described as follows: Mfn2 modification and degradation in A-T/LV shRNA cells treated with mitochondrial depolarizing agents. Here is the method: Immunoblotting Analysis of Mitochondrial Proteins—Mitochondria were isolated from A-T/LV control and ISG15 shRNA cells using the Miochondrial Isolation Kit (Thermo Scientific Company, 89874). The Dounce homogenization protocol described by the manufacturer was used to isolate mitochondria from cells. Mitochondrial pellets were resuspended in lysis buffer containing 50 mM Tris pH 7.5 and 4% (v/v) SDS. Samples were homogenized and boiled for 10 min. Lysates containing equal protein were then mixed with 6× Laemmli SDS sample buffer (3× final concentration). Samples were boiled again and mitochondrial proteins were analyzed by SDS-PAGE. Immunoblotting analyses using either anti-ISG15 (raised against human ISG15) (20), anti-ubiquitin (gift from Dr. Arthur Haas, at LSUHSC—New Orleans), or anti-mitofusin 2 (Abcam, ab88569) antibodies were carried out using the ECL Western procedure (Pierce, 34076) and the BioRad VersaDoc Imaging System (BioRad). Immunoblotting Analysis of HA Polyubiquitylated Proteins in Cells: Cells were transfected with HA-ubiquitin using the PolyFect transfection reagent (Qiagen, 301105). Twenty four hours after transfection, mitochondria were isolated as described above. Mitochondrial lysis, SDS-PAGE, and immunoblotting analysis to detect HA-ubiquitin conjugated proteins using anti-HA antibodies were carried out as described above. Immunoblotting Analysis of Mfn2 in Cells: Cells were lysed in lysis buffer containing 50 mM Tris-HCl, pH 7.5, 2% SDS, and protease inhibitor cocktail. Lysates were sonicated, boiled, and cleared by centrifugation. Lysates containing equal protein were then mixed with 6× Laemmli SDS sample buffer (3× final concentration). Samples were boiled again and proteins were separated by 15% SDS-PAGE. Immunoblotting analysis was carried out using anti-Mfn2 antibodies (Abcam) as described above. Intensity of the Mfn2 bands was quantitated using BioRad Quantity One software. Statistical analysis—Statistical analysis was carried out using GraphPad software.
Many outer mitochondrial membrane (OMM) proteins are ubiquitylated and degraded via the 26S proteasome prior to mitophagy in cells treated with the mitochondrial depolarizing agents (28,29). To test whether ISG15 inhibits polyubiquitylation of OMM proteins, we assessed the fate of Mfn2, an OMM protein and proteasome substrate, in A-T/LV-control and A-T/LV-ISG15-silenced cells treated with two different mitochondrial depolarizing agents, valinomycin and carbonylcyanide m-chlorophenylhydrazone (CCCP). Consistent with the literature reports (29,35,36), we observed a ladder of high molecular weight anti-Mfn2 cross-reactive bands above the 86 kDa Mfn2 protein band that is reminiscent of polyubiquitylation, in both ISG15-silenced and ISG15 overexpressing A-T cells (FIGS. 34 A and B, left panels). The endogenous level of these high molecular weight Mfn2 cross-reactive bands was remarkably higher in ISG15-silenced as compared to the ISG15-overexpressing A-T cells in the absence of any drugs (FIGS. 34A and B, first panels, compare lanes 1 and 4). […] In contrast, the level of these Mfn2 cross-reactive high molecular weight bands decreased under the same drug treatment conditions in ISG15-silenced A-T cells (FIGS. 34A and B, first panels, lanes 4-6, and the accompanying bar graph in the second panel for quantitation). […] The bar graphs in FIGS. 34A and B, third panels, show mean values of the ratio between free Mfn2 (86 kDa band) and actin proteins (±SEM) in CCCP-treated A-T/LV-control and ISG15 shRNA cells measured from eight independent experiments, and valinomycin-treated A-T/LV-control and ISG15 shRNA cells measured from three independent experiments respectively.

The test system of test [2] is Mfn2. Briefly: MFN2 modification and degradation in HEK293 cells treated with CCCP. Particulars: HEK cells, CCCP 10 μM, 24 h. The source says: MFN2 is conjugated to SUMO-1/2/3 and ubiquitin, and is degraded in HEK293 cells treated with CCCP. We confirmed CCCP-induced MFN2-SUMO/ubiquitin modification and degradation in “normal” HEK293 cells. […] However, CCCP-mediated decrease in MFN2 was proteasome-dependent (FIG. 37D). Together, our results using A-T and HEK293 cells reveal that MFN2 is SUMOylated in response to CCCP treatment.

Test [3] concerns polyubiquitylated proteins. Briefly: Camptothecin-induced degradation of polyubiquitylated proteins in A-T cells. Particulars: CPT 10 μm, 24 hr. The procedure: To test the generality of this observation, the anticancer drug camptothecin (CPT), a genotoxic agent (37, 48-50), which is known to sensitize A-T cells (37), like UV, was used to induce degradation of polyubiquitylated proteins in A-T cells. In FIG. 8E, A-T cells were treated with camptothecin (CPT; 10 μm) in the presence or absence of Bafl (1 nm) for 24 hr. Ubiquitin conjugated proteins using anti-ubiquitin antibodies were detected as described herein for FIG. 8A. The experiment was repeated three times.

On to `N#CC(C#N)=NNc1cccc(Cl)c1` [CCCP, carbonylcyanide m-chlorophenylhydrazone], for which the “free MFN2 protein level” value in test [1] (CCCP-treated ISG15 overexpressing A-T cells) is listed as “remained unaffected”. For the same compound, the “decrease in the free MFN2 level” value in test [1] (ISG15-silenced A-T cells, CCCP 24 h, cell lysates and immunoprecipitates) is given as 20%. The “free Mfn2 protein level” value in test [1] (ISG15 overexpressing A-T cells, 24 hr) was “slightly increased”. In test [2], the “conjugation of SUMO-1, SUMO-2/3, and ubiquitin to MFN2” value is on record as “induces conjugation”; the “degradation of MFN2” value is 20%.
Consider `CC[C@@]1(O)C(=O)OCc2c1cc1n(c2=O)Cc2cc3ccccc3nc2-1` [CPT, camptothecin], for which the “degradation of endogenous polyubiquitylated proteins” value in test [3] was “induced degradation”.

The values above are taken from US12085575B2, “Compositions and methods for detecting proteinopathies” (BOARD OF SUPERVISORS OF LOUISIANA STATE UNIVERSITY AND …, priority 2011, dated 2024).
